Results: patent publication US7030139B2, “Compounds” (AstraZeneca AB, priority 2001, dated 2006)
Like-named read-outs stand apart in the source and are kept apart here.

Key:
hCB2 [1] = biological target: T1, hCB2 (Homo sapiens, UniProt P34972); test: hCB2 GTPγS binding; format: biochemical
T1 construct: purchased BioSignal

hCB2 [2] = biological target: T1, hCB2; test: hCB2 receptor binding (3H-CP55,940 displacement, membranes)
hCB2-Sf9 = biological target: T2, hCB2-Sf9 (Homo sapiens, UniProt P34972); test: Ki hCB2-Sf9 binding (compounds made in a plate); details: Table 2, printed in the IC50 (nM) column; n = 2; measured from 2 compounds made in a plate
T2 construct: host or cells: Sf9 (inferred from the head 'hCB2-Sf9')
T2 sequence (P34972 whole entry): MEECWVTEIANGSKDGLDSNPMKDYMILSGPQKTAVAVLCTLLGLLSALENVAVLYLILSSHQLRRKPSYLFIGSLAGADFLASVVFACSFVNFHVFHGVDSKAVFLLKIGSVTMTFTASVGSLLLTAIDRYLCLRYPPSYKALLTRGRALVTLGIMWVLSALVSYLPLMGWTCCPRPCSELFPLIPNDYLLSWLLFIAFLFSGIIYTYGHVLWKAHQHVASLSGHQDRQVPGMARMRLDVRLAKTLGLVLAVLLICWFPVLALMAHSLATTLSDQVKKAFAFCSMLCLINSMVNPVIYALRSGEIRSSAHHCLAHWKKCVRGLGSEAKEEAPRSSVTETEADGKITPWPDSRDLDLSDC

T1 sequence (P34972 whole entry): as above

CCOc1ccc(Cc2nc3cc(C(=O)N(CC)CC)ccc3n2CCC(=O)OC)cc1 [Example 5, Methyl 3-[5-[(diethylamino)carbonyl]-2-(4-ethoxybenzyl)-1H-benzimidazol-1-yl]propanoate]
EC50 (hCB2 [1]): 65 nM
Emax (hCB2 [1]; read-out: % Emax, hCB2): 53%
Ki (hCB2 [2]): 142 nM

CCOc1ccc(C(C)c2nc3cc(N(C)C(=O)CC(C)C)ccc3n2CC2CC2)cc1 (stereo not shown) [Example 52, N-[1-(Cyclopropylmethyl)-2-[1-(4-ethoxyphenyl)ethyl]-1H-benzimidazol-5-yl]-N,3-dimethyl-butanamide]
Emax (hCB2 [1]): 41%

C=CCNc1ccc2c(c1)nc(Cc1ccc(OCC)cc1)n2CC1CC1 [Example 33, N-Allyl-1-(cyclopropylmethyl)2-(4-ethoxybenzyl)-1H-benzimidazol-5-amine]
EC50 (hCB2 [1]; Table 1, GTPγS binding, human CB2 membranes, read-out: EC50, hCB2, nM): 146 nM
Emax (hCB2 [1]; Table 1, GTPγS binding, maximal stimulated binding defined with 1 μM Win 55,212-2, read-out: % Emax, hCB2): 54%
Ki (hCB2 [2]; Table 1, human CB2 membranes, 3H-CP55,940, read-out: Ki(hCB2)): 308 nM

CCOc1ccc(Cc2nc3cc(N(C)C(=O)NC(C)C)cnc3n2CC2CC2)cc1 [Example 60, N-[3-(Cyclopropylmethyl)-2-[(4-ethoxyphenyl)methyl]-3H-imidazo[4,5-b]pyridin-6-yl]-N-methyl-N′-(1-methylethyl)-urea]
IC50 (hCB2 [2]; read-out: hCB2 IC50): 970 nM

CCOc1ccc(Cc2nc3cc(N(C)C(=O)CC(C)C)ccc3n2Cc2ccc(COC(C)=O)o2)cc1 [Example 49, N-[1-[[5-[(Acetyloxy)methyl]-2-furanyl]methyl]-2-[(4-ethoxyphenyl)methyl]-1H-benzimidazol-5-yl]-N,3-dimethyl-butanamide]
EC50 (hCB2 [1]): 6.8 nM
Emax (hCB2 [1]): 67%
IC50 (hCB2 [2]; hCB2 IC50 (nM)): 32 nM

CCOc1ccc(Cc2nc3cc(CN4CCOCC4)ccc3n2CC2CC2)cc1 [Example 24, 1-(Cyclopropylmethyl)-2-(4-ethoxybenzyl)-5-(4-morpholinylmethyl)-1H-benzimidazole]
EC50 (hCB2 [1]): 81 nM
Emax (hCB2 [1]; read-out: % Emax, hCB2): 62%
Ki (hCB2 [2]): 178 nM

CCOc1ccc(Cc2nc3cc(C(=O)N(CC)CC)ccc3n2CC2CC2)cn1 [Example 13, 1-(Cyclopropylmethyl)-2-[(6-ethoxy-3-pyridinyl)methyl]-N,N-diethyl-1H-benzimidazole-5-carboxamide]
EC50 (hCB2 [1]): 97 nM
Emax (hCB2 [1]; read-out: % Emax, hCB2): 93%
Ki (hCB2 [2]): 133 nM

CCOc1ccc(Cc2nc3cc(NC(=O)OC)ccc3n2CC2CC2)cc1 [Example 26, Methyl-1-(cyclopropylmethyl)-2-(4-ethoxybenzyl)-1H-benzimidazol-5-yl carbamate]
% Emax, hCB2 (hCB2 [1]): 295(41%)
EC50 (hCB2 [1]; read-out: EC50, hCB2, nM): 295 nM

CCOc1ccc(C(O)c2nc3cc(C(=O)N(CC)CC)ccc3n2CCC(C)C)cc1 (stereo not shown) [Example 46, 2-[(4-Ethoxyphenyl)hydroxymethyl]-N,N-diethyl-(3-methylbutyl)-1H-benzimidazole-5-carboxamide]
EC50 (hCB2 [1]): 69 nM
Emax (hCB2 [1]): 70%
IC50 (hCB2 [2]; hCB2 IC50 (nM)): 100 nM

CCOc1ccc(Cc2nc3cc(N(C)S(=O)(=O)c4cccs4)cnc3n2CC2CC2)cc1 [Example 62, N-[3-(Cyclopropylmethyl)-2-[(4-ethoxyphenyl)methyl]-3H-imidazo[4,5-b]pyridin-6-yl]-N-methyl-2-thiophenesulfonamide]
Ki (hCB2-Sf9): 4.5 nM

CCOc1ccc(C(C)c2nc3cc(N(C)C(=O)NC(C)C)ccc3n2CC2CC2)cc1 (racemic) [Example 53, (rac)-N-[1-(Cyclopropylmethyl)-2-[1-(4-ethoxyphenyl)ethyl]1H-benzimidazol-5-yl]-N-methyl-N′-(1-methylethyl)-urea]
EC50 (hCB2 [1]): 6.7 nM
Emax (hCB2 [1]): 46%
IC50 (hCB2 [2]; hCB2 IC50 (nM)): 36 nM

CCOc1ccc(C(C)c2nc3cc(N(C)C(=O)NC(C)C)ccc3n2CC2CCCCC2)cc1 (stereo not shown) [Example 56, N-[1-(Cyclohexylmethyl)-2-[1-(4-ethoxyphenyl)ethyl]-1H-benzimidazol-5-yl]-N-methyl-N′-(1-methylethyl)-urea]
EC50 (hCB2 [1]): 1.5 nM
Emax (hCB2 [1]): 88%
IC50 (hCB2 [2]; hCB2 IC50 (nM)): 5.4 nM

CCOc1ccc(Cc2nc3cc(N(C)C(=O)CC(C)C)cnc3n2CC2CC2)cc1 [Example 59, N-[3-(Cyclopropylmethyl)-2-[(4-ethoxyphenyl)methyl]-3H-imidazo[4,5-b]pyridin-6-yl]-N,3-dimethyl-butanamide]
EC50 (hCB2 [1]): 64 nM
Emax (hCB2 [1]): 67%
IC50 (hCB2 [2]; hCB2 IC50 (nM)): 328 nM

CCOc1ccc(Nc2nc3cc(C(=O)N(CC)CC)ccc3n2CCC(C)C)cc1 [Example 39, 2-(4-Ethoxyanilino)-N,N-diethyl-1-isopentyl-1H-benzimidazole-5-carboxamide]
EC50 (hCB2 [1]): 64 nM
Emax (hCB2 [1]; read-out: % Emax, hCB2): 64%
Ki (hCB2 [2]): 98 nM

CCOc1ccc(Cc2nc3cc(C(=O)N(CC)CC)ccc3n2C[C@@H]2CCCO2)cc1 [Example 42]
EC50 (hCB2 [1]): 5 nM
Emax (hCB2 [1]): 76%
IC50 (hCB2 [2]; hCB2 IC50 (nM)): 23 nM

CCOc1ccc(Cc2nc3cc(N(C)C(=O)CC(C)C)ccc3n2Cc2ccsc2)cc1 [Example 47, N-[2-[(4-Ethoxyphenyl)methyl]-1-(3-thienylmethyl)1H-benzimidazol-5-yl]-N,3-dimethyl-butanamide]
EC50 (hCB2 [1]): 1.4 nM
Emax (hCB2 [1]): 70%
IC50 (hCB2 [2]; hCB2 IC50 (nM)): 3.3 nM

CCOc1ccc(C(C)c2nc3cc(N(C)C(=O)NC(C)C)ccc3n2CC2CC2)cc1 (single isomer, unassigned; (-)) [Example 54, (−)-N-[1-(Cyclopropylmethyl)-2-[1-(4-ethoxyphenyl)ethyl]-1H-benzimidazol-5-yl]-N-methyl-N′-(1-methylethyl)-urea]
EC50 (hCB2 [1]): 3.4 nM
Emax (hCB2 [1]): 66%
IC50 (hCB2 [2]; hCB2 IC50 (nM)): 15.5 nM

CCOc1ccc(C(C)c2nc3cc(N(C)C(=O)NC(C)C)ccc3n2CC2CC2)cc1 (single isomer, unassigned; (+)) [Example 55, (+)-N-[1-(Cyclopropylmethyl)-2-[1-(4-ethoxyphenyl)ethyl]-1H-benzimidazol-5-yl]-N-methyl-N′-(1-methylethyl)-urea]
IC50 (hCB2 [2]; hCB2 IC50 (nM)): 715 nM

CCOc1ccc(Cc2nc3cc(C(=O)N(CC)CC)ccc3n2Cc2ccsc2)cc1 [Example 40, 2-[(4-Ethoxyphenyl)methyl]-N,N-diethyl-1-(3-thienylmethyl)-1H-benzimidazole-5-carboxamide]
EC50 (hCB2 [1]): 1.2 nM
Emax (hCB2 [1]): 74%
IC50 (hCB2 [2]; hCB2 IC50 (nM)): 2.8 nM

CCOc1ccc(Cc2nc3cc(N(C)S(=O)(=O)c4ccccc4)cnc3n2CC2CC2)cc1 [Example 61, N-[3-(Cyclopropylmethyl)-2-[(4-ethoxyphenyl)methyl]-3H-imidazo[4,5-b]pyridin-6-yl]-N-methyl-benzenesulfonamide]
Ki (hCB2-Sf9): 11.4 nM

CCOc1ccc(Cc2nc3cc(C(=O)N(CC)CC)cnc3n2Cc2ccc([N+](=O)[O-])s2)cc1 [Example 57, 2-[(4-Ethoxyphenyl)methyl]-N,N-diethyl-3-[(5-nitro-2-thienyl)methyl]-3H-imidazo[4,5-b]pyridine-6-carboxamide]
EC50 (hCB2 [1]): 2.8 nM
Emax (hCB2 [1]): 72%
IC50 (hCB2 [2]; hCB2 IC50 (nM)): 9.5 nM
